Measurements as given in patent US6143739A, “Basic proline-amide derivatives of GE 2270 and GE 2270-like antibiotics” (Biosearch Italia S.p.A., priority 1995, dated 2000).

Legend:
Test in all cases: MIC by microbroth dilution
Assay type in all cases: cell-based
[1] = tested on: Staphylococcus aureus L165; conditions: 0.01% (w/v) BSA, 10^4 CFU/ml, read after 18-24 h, 37° C., Iso-Sensitest broth
Description: (§1) The minimal inhibitory concentration (MIC) has been determined by microbroth dilution methodology, in the presence of 0.01% (w/v) of bovine serum albumin (BSA). BSA is added to the diluent to avoid possible adherence of the compounds of the invention to the plastic surface of the microtiter wells, as disclosed also by B. Goldstein et al., Antimicrobial Agents and Chemotherapy, 37 (1993), 741-745.
(§2) Inocula were 10^4 CFU/ml, except for Propionibacterium acnes and Bacteroides fragilis (10^5 CFU/ml).
(§3) MICs were read after 18-24 h, except for Haemophilus influenzae, P. acnes, B. fragilis (48 h).
(§4) All microorganisms were incubated at 37° C.; H. influenzae in a 5% CO2 atmosphere, anaerobes in a N2 --CO2 --H2 (80:10:10) mixture; other organisms in air.
(§5) The growth media are: Oxoid Iso-Sensitest broth for staphylococci and Enterococcus faecalis); Difco Todd Hewitt broth for streptococci; Difco brain heart infusion broth+1% Difco Supplement C for H. influenzae; Difco Wilkins-Chalgren broth for anaerobes.

Strept. agalactiae L310 = conditions: 0.01% (w/v) BSA, 10^4 CFU/ml, read after 18-24 h, 37° C., Todd Hewitt broth
Description: as §1, §2, §3, §4, §5

Strept. sanguis L1721 = conditions: 0.01% (w/v) BSA, 10^4 CFU/ml, read after 18-24 h, 37° C., Todd Hewitt broth
Description: as §1, §2, §3, §4, §5

[2] = tested on: Streptococcus pyogenes L49; conditions: 0.01% (w/v) BSA, 10^4 CFU/ml, read after 18-24 h, 37° C., Todd Hewitt broth
Description: as §1, §2, §3, §4, §5

Strept. pneumoniae L44 = conditions: 0.01% (w/v) BSA, 10^4 CFU/ml, read after 18-24 h, 37° C., Todd Hewitt broth
Description: BSA is added to the diluent to avoid possible adherence of the compounds of the invention to the plastic surface of the microtiter wells, as disclosed also by B. Goldstein et al., Antimicrobial Agents and Chemotherapy, 37 (1993), 741-745. Inocula were 10^4 CFU/ml, except for Propionibacterium acnes and Bacteroides fragilis (10^5 CFU/ml). MICs were read after 18-24 h, except for Haemophilus influenzae, P. acnes, B. fragilis (48 h). All microorganisms were incubated at 37° C.; H. influenzae in a 5% CO2 atmosphere, anaerobes in a N2 --CO2 --H2 (80:10:10) mixture; other organisms in air. The growth media are: Oxoid Iso-Sensitest broth for staphylococci and Enterococcus faecalis); Difco Todd Hewitt broth for streptococci; Difco brain heart infusion broth+1% Difco Supplement C for H. influenzae; Difco Wilkins-Chalgren broth for anaerobes.

| Compound | MIC of the compounds, Staphylococcus aureus L165 [1] | MIC of the compounds, Strept. agalactiae L310 (Strept. agalactiae L310) | MIC of the compounds, Strept. sanguis L1721 (Strept. sanguis L1721) | MIC of the compounds, Streptococcus pyogenes L49 [2] | MIC of the compounds, Strept. pneumoniae L44 (Strept. pneumoniae L44) |
| --- | --- | --- | --- | --- | --- |
| CCN(CCN(C)C)C(=O)C1CCCN1C(=O)C1COC(c2csc(-c3ccc4c(n3)-c3csc(n3)-c3csc(n3)C(C(O)c3ccccc3)NC(=O)CNC(=O)c3nc(sc3COC)C(C(C)C)NC(=O)c3nc(sc3C)C(CC(=O)NC)NC(=O)c3csc-4n3)n2)=N1 (mixture of isomers) [Compound 8] | 0.06 µg/mL | 8 µg/mL | 0.5 µg/mL | 4 µg/mL | 0.25 µg/mL |
| CCN(CC)CCN(CC)C(=O)C1CCCN1C(=O)C1COC(c2csc(-c3ccc4c(n3)-c3csc(n3)-c3csc(n3)C(C(O)c3ccccc3)NC(=O)CNC(=O)c3nc(sc3COC)C(C(C)C)NC(=O)c3nc(sc3C)C(CC(=O)NC)NC(=O)c3csc-4n3)n2)=N1 (mixture of isomers) [Compound 9] | 0.06 µg/mL | 8 µg/mL | 2 µg/mL | 8 µg/mL | 0.5 µg/mL |
| CNC(=O)CC1NC(=O)c2csc(n2)-c2ccc(-c3nc(C4=NC(C(=O)N5CCCC5C(=O)NC(C)C(=O)N(C)CCN(C)C)CO4)cs3)nc2-c2csc(n2)-c2csc(n2)C(C(O)c2ccccc2)NC(=O)CNC(=O)c2nc(sc2COC)C(C(C)C)NC(=O)c2nc1sc2C (mixture of isomers) [Compound 14] | 0.13 µg/mL | 4 µg/mL | 0.25 µg/mL | 2 µg/mL | 0.13 µg/mL |

Continued, values first:

| MIC of the compounds, Staphylococcus aureus L165 [1] | MIC of the compounds, Strept. agalactiae L310 (Strept. agalactiae L310) | MIC of the compounds, Strept. sanguis L1721 (Strept. sanguis L1721) | MIC of the compounds, Streptococcus pyogenes L49 [2] | MIC of the compounds, Strept. pneumoniae L44 (Strept. pneumoniae L44) | Compound |
| --- | --- | --- | --- | --- | --- |
| 0.06 µg/mL | 4 µg/mL | 0.5 µg/mL | 4 µg/mL | 0.25 µg/mL | CNC(=O)CC1NC(=O)c2csc(n2)-c2ccc(-c3nc(C4=NC(C(=O)N5CCCC5C(=O)NCCCN(C)C)CO4)cs3)nc2-c2csc(n2)-c2csc(n2)C(C(O)c2ccccc2)NC(=O)CNC(=O)c2nc(sc2COC)C(C(C)C)NC(=O)c2nc1sc2C (mixture of isomers) [Compound 4] |
| 0.06 µg/mL | 4 µg/mL | 0.5 µg/mL | 1 µg/mL | 0.13 µg/mL | CNC(=O)CC1NC(=O)c2csc(n2)-c2ccc(-c3nc(C4=NC(C(=O)N5CCCC5C(=O)NCCN(C)C)CO4)cs3)nc2-c2csc(n2)-c2csc(n2)C(C(O)c2ccccc2)NC(=O)CNC(=O)c2nc(sc2COC)C(C(C)C)NC(=O)c2nc1sc2C (mixture of isomers) [Compound 7] |
| 0.06 µg/mL | 4 µg/mL | 0.5 µg/mL | 4 µg/mL | 0.25 µg/mL | CNC(=O)CC1NC(=O)c2csc(n2)-c2ccc(-c3nc(C4=NC(C(=O)N5CCCC5C(=O)NCCN(C(C)C)C(C)C)CO4)cs3)nc2-c2csc(n2)-c2csc(n2)C(C(O)c2ccccc2)NC(=O)CNC(=O)c2nc(sc2COC)C(C(C)C)NC(=O)c2nc1sc2C (mixture of isomers) [Compound 11] |
| 0.13 µg/mL | 8 µg/mL | 1 µg/mL | 4 µg/mL | 0.5 µg/mL | CNC(=O)CC1NC(=O)c2csc(n2)-c2ccc(-c3nc(C4=NC(C(=O)N5CCCC5C(=O)N(C)CC(=O)N(C)CCN(C)C)CO4)cs3)nc2-c2csc(n2)-c2csc(n2)C(C(O)c2ccccc2)NC(=O)CNC(=O)c2nc(sc2COC)C(C(C)C)NC(=O)c2nc1sc2C (mixture of isomers) [Compound 13] |
